Test results as given in publication PMC7094781 (Journal of Molecular Biology, 2007).

Target: SARS 3CL^pro (Severe acute respiratory syndrome coronavirus, UniProt P0C6U8)

## acetyl-leucyl-alanyl-alanyl-ketomethyl(cycloglutamine)-phthalhydrazide [inhibitor 2]
  bonding mode to Cys145, soaking: the episulfide and the deacylating (major) mixed forms
